Experiment [1] deals with Vero. Kind of experiment: Protection against Escherichia coli Stx2a-induce d african green monkey Vero cell death assessed as protection of cell viability incubated pretreated cells for 1 hr measured after 2 hrs of toxin addition. It is filed as functional, cell-based. As to conditions: Chlorocebus sabaeus, time 3.0 hrs.
In experiment [2] the test system is Vero. Kind of experiment: Inhibition of Escherichia coli Stx2a using african green monkey Vero cell assessed as inhibition of depurination incubated pretreated cells for 1 hr measured after 2 hrs of toxin addition. It is filed as cell-based. The conditions noted are these: time 3.0 hrs.

Active and inactive are the calls of the source. The calls are words filed in the database; no cut-off is given here.

On to `Cc1ccccc1-c1ccc(C(=O)O)s1`, for which, in experiment [1], the result was inactive. Besides, in experiment [2], the inhibition result was “inactive”.

In the case of `CCc1ccccc1-c1ccc(C(=O)O)s1`, in experiment [1], the result was inactive. The inhibition result in experiment [2] is “inactive”.

Regarding `Cc1cc(C)c(-c2ccc(C(=O)O)s2)c(C)c1`, the result in experiment [1] was inactive. Moreover, the inhibition result in experiment [2] was “inactive”.

With `Cc1cccc(C)c1-c1ccc(C(=O)O)s1`, the outcome in experiment [1] was inactive. Further, in experiment [2], the inhibition entry was “inactive”.

These data come from ChEMBL document CHEMBL5030555.
